Five compounds from US20250368649A1, “TETRAHYDROPYRIDOPYRIMIDINE PAN-KRAS INHIBITORS” (Mirati Therapeutics, Inc., priority 2022, published 2025) can be followed below.

Bounds are passed on as bounds.

As usually defined, the inhibition is the relative decrease from the control value, in per cent. The IC50 is the concentration that gives 50% inhibition.

For one assay, the target named is KRas WT (Homo sapiens, UniProt P01116). The assay can be described thus: KRas binding assay (TR-FRET displacement), KRas WT. The note with it: single point, 10 nM compound.
A further assay addresses KRas G12A (Homo sapiens, UniProt P01116, G12A). Format: binding. Particulars: single point, 10 nM compound, read-out: Binding to KRas (% inhibition at 10 nM) G12A.
For the next assay, the target named is KRas G12C (Homo sapiens, UniProt P01116, G12C). The format is binding. The note with it: single point, 10 nM compound, read-out: Binding to KRas (% inhibition at 10 nM) G12C.
For another assay, the target named is KRas G12S (Homo sapiens, UniProt P01116, G12S). Format: binding. Particulars: single point, 10 nM compound, read-out: Binding to KRas (% inhibition at 10 nM) G12S.
The target of another assay is KRas G13D (Homo sapiens, UniProt P01116, G13D). Format: binding. The note with it: single point, 10 nM compound, read-out: Binding to KRas (% inhibition at 10 nM) G13D.
Another assay has as its target KRas Q61H (Homo sapiens, UniProt P01116, Q61H). The assay can be described thus: KRas binding assay (TR-FRET displacement), KRas Q61H. The note with it: single point, 10 nM compound.
In another assay the test system is MKN1 cells. The assay is described as follows: Inhibition of KRas-mediated phosphorylation of ERK (Cisbio HTRF pERK), MKN1 cells. Format: cell-based. The note with it: Homo sapiens, MKN-1, 3 hour compound incubation, Cisbio pERK HTRF. In a few lines: (§1)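 Day 1: 6,000 cells/well plated, RPMI + 10% FBS.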
A general note: TR-FRET usually uses a lanthanide donor and a delayed reading to cut background.

In a further assay the test system is PSN1 cells. The assay is described as follows: Inhibition of KRas-mediated phosphorylation of ERK (Cisbio HTRF pERK), PSN1 cells. The format is cell-based. The note with it: Homo sapiens, PSN1, 3 h, 3 hour compound incubation, Cisbio pERK HTRF. In a few lines: as §1
For a further assay, the system named is ASPC1 cells. The assay is described as follows: Inhibition of KRas-mediated phosphorylation of ERK (Cisbio HTRF pERK), ASPC1 cells. Format: cell-based. Particulars: Homo sapiens, AsPC-1 cells; for IC50: ASPC1, 3 h, 3 hr compound incubation, Cisbio pERK HTRF.
A further assay has as its system H727 cells. The assay can be described thus: Inhibition of KRas-mediated phosphorylation of ERK (Cisbio HTRF pERK), H727 cells. The format is cell-based. Particulars: Homo sapiens; for IC50: NCI-H727, 3 h, 3 hr compound incubation, Cisbio pERK HTRF.
A further assay deals with A549 cells. The assay is described as follows: Inhibition of KRas-mediated phosphorylation of ERK (Cisbio HTRF pERK), A549 cells. Particulars: Homo sapiens; for IC50: A549, 3 h, 3 hr compound incubation, Cisbio pERK HTRF; for inhibition at 0.1 µM: single point at 100 nM, 3 hrs compound incubation. The format is cell-based.
Another assay concerns H460 cells. The assay is described as follows: Inhibition of KRas-mediated phosphorylation of ERK (Cisbio HTRF pERK), H460 cells. Format: cell-based. The note with it: Homo sapiens; for IC50: NCI-H460, 3 h, 3 hr compound incubation, Cisbio pERK HTRF.
The subject of the next assay is HCT116 cells. The assay is described as follows: Inhibition of KRas-mediated phosphorylation of ERK (Cisbio HTRF pERK), HCT116 cells. The note with it: Homo sapiens; for IC50: HCT-116, 3 h, 3 hr compound incubation, Cisbio pERK HTRF. Format: cell-based.
In the next assay the test system is H358 cells. The assay is described as follows: Inhibition of KRas-mediated phosphorylation of ERK (Cisbio HTRF pERK), H358 cells. The format is cell-based. The note with it: Homo sapiens; for IC50: NCI-H358, 3 h, 3 hr compound incubation, Cisbio pERK HTRF; for inhibition at 0.1 µM: NCI-H358, single point at 100 nM, 3 hrs compound incubation.
The target of a further assay is KRas G12D (Homo sapiens, UniProt P01116, G12D). The assay can be described thus: biochemical. The note with it: Binding to KRas (IC50 nM) G12D, TR-FRET displacement, KRas G12D.
The target in another assay is KRas G12R (Homo sapiens, UniProt P01116, G12R). The assay can be described thus: biochemical. Particulars: Binding to KRas (IC50 nM) G12R, TR-FRET displacement, KRas G12R.
For a further assay, the target named is KRas G12V (Homo sapiens, UniProt P01116, G12V). The assay can be described thus: biochemical. The note with it: Binding to KRas (IC50 nM) G12V, TR-FRET displacement, KRas G12V.
KRas G12V, sequence (P01116 1-169 isoform P01116-2 G12V): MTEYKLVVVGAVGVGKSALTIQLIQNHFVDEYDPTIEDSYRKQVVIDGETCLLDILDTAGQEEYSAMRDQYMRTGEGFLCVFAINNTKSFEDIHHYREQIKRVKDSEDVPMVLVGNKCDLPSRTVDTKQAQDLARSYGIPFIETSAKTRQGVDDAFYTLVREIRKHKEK

KRas G12D, sequence (P01116 1-169 isoform P01116-2 G12D): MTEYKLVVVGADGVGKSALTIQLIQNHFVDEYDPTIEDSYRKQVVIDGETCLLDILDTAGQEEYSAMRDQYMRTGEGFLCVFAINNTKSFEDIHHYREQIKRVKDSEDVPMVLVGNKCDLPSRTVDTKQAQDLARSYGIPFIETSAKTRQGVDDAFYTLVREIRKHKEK
KRas WT, sequence (P01116 1-169 isoform P01116-2): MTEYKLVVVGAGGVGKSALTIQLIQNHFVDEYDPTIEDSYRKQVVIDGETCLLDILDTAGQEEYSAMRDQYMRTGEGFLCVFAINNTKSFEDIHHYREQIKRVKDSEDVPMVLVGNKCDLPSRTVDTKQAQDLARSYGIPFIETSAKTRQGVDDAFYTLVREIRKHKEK
KRas G12C, sequence (P01116 1-169 isoform P01116-2 G12C): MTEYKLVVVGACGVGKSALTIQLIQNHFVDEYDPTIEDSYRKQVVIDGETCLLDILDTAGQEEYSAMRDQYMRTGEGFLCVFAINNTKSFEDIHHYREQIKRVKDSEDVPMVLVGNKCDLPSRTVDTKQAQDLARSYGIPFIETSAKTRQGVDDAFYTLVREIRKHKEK
KRas G13D, sequence (P01116 1-169 isoform P01116-2 G13D): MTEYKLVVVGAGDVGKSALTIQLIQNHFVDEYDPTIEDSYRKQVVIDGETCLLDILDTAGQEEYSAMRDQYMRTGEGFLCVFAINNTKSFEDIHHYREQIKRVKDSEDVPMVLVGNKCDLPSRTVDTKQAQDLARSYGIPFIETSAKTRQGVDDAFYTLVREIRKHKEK
KRas G12A, sequence (P01116 1-169 isoform P01116-2 G12A): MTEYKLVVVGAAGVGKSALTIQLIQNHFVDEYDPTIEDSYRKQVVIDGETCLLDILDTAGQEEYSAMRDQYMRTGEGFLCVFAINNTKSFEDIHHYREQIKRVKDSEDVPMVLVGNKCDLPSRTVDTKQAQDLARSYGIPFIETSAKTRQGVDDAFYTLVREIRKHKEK
KRas G12R, sequence (P01116 1-169 isoform P01116-2 G12R): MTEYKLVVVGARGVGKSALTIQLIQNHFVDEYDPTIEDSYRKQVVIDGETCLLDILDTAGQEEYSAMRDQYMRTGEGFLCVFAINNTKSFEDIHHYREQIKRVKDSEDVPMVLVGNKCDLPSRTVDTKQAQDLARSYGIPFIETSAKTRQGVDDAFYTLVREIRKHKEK
KRas G12S, sequence (P01116 1-169 isoform P01116-2 G12S): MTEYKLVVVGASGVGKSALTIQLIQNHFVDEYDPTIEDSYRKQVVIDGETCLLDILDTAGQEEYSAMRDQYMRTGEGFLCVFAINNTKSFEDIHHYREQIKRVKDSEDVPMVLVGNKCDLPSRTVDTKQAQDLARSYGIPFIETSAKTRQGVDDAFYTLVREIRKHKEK
KRas Q61H, sequence (P01116 1-169 isoform P01116-2 Q61H): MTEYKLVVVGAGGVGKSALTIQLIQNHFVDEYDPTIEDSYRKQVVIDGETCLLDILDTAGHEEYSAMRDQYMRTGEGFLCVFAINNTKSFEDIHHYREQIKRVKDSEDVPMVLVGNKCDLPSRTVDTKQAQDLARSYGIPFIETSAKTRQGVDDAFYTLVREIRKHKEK

`CCNC(=O)c1nn2c(c1Cl)CN(c1nc(OC[C@@]34CCCN3C[C@H](F)C4)nc3c1CCN(c1cc(O)cc4ccc(F)c(CC)c14)C3)CCC2` [Example 367, 3-chloro-N-ethyl-5-(7-(8-ethyl-7-fluoro-3-hydroxynaphthalen-1-yl)-2-(((2R,7aS)-2-fluorohexahydro-1H-pyrrolizin-7a-yl)methoxy)-5,6,7,8-tetrahydropyrido[3,4-d]pyrimidin-4-yl)-5,6,7,8-tetrahydro-4H-pyrazolo[1,5-a][1,4]diazepine-2-carboxamide]: the inhibition at 0.01 µM on KRas WT was 98%; on KRas G12A, 99%; at KRas G12C, 100%; at KRas G12S it was 99%; on KRas G13D, 98%; at KRas Q61H, 99%. The concentration for half-maximal inhibition (IC50) in the assay on MKN1 cells came out at 4.2 nM; in the assay on PSN1 cells it was 2100 nM; in the assay with ASPC1 cells it was 2 nM; in the assay on H727 cells, 3 nM; with A549 cells, 5 nM; in the assay on H460 cells, 24 nM. The half-maximal inhibitory concentration (IC50) is 40 nM in the assay with HCT116 cells; 1 nM in the assay on H358 cells; under 2 nM on KRas G12D; under 2 nM at KRas G12R; under 2 nM at KRas G12V. Also, the inhibition at 0.1 µM in the assay with A549 cells came out at 85%; in the assay with H460 cells (NCI-H460, single point at 100 nM, 3 hrs compound incubation) it was 83%; in the assay with HCT116 cells (HCT-116, single point at 100 nM, 3 hrs compound incubation), 62%; in the assay on H358 cells it was 101%.

Turning to `CCc1c(F)ccc2cc(O)cc(N3CCc4c(nc(OC[C@@]56CCCN5C[C@H](F)C6)nc4N4CCCn5nc(C(=O)N(C)C)c(OC)c5C4)C3)c12` [Example 370, 5-(7-(8-ethyl-7-fluoro-3-hydroxynaphthalen-1-yl)-2-(((2R,7aS)-2-fluorohexahydro-1H-pyrrolizin-7a-yl)methoxy)-5,6,7,8-tetrahydropyrido[3,4-d]pyrimidin-4-yl)-3-methoxy-N,N-dimethyl-5,6,7,8-tetrahydro-4H-pyrazolo[1,5-a][1,4]diazepine-2-carboxamide], the inhibition at 0.01 µM on KRas WT amounted to 97%; on KRas G12A it was 97%; on KRas G12C it was 99%; on KRas G12S, 99%; on KRas G13D, 98%; on KRas Q61H, 98%. Also, the IC50 in the assay on MKN1 cells was 6.9 nM; in the assay with PSN1 cells, over 10000 nM; with ASPC1 cells it was 9 nM; in the assay with H727 cells, 20 nM; in the assay with A549 cells, 36 nM; in the assay on H460 cells it was 43 nM. The IC50 is 132 nM in the assay on HCT116 cells; 6 nM in the assay with H358 cells; under 2 nM at KRas G12D; under 2 nM on KRas G12R; under 2 nM on KRas G12V. Further, the inhibition at 0.1 µM was 65% in the assay with A549 cells and 97% in the assay on H358 cells.

Take `CCc1c(F)ccc2cc(O)cc(N3CCc4c(nc(OC[C@@]56CCCN5C[C@H](F)C6)nc4N4CCCn5nc(C(=O)NC(C)C)c(C)c5C4)C3)c12` [Example 371, 5-(7-(8-ethyl-7-fluoro-3-hydroxynaphthalen-1-yl)-2-(((2R,7aS)-2-fluorohexahydro-1H-pyrrolizin-7a-yl)methoxy)-5,6,7,8-tetrahydropyrido[3,4-d]pyrimidin-4-yl)-N-isopropyl-3-methyl-5,6,7,8-tetrahydro-4H-pyrazolo[1,5-a][1,4]diazepine-2-carboxamide]: the inhibition at 0.01 µM on KRas WT was found to be 86%; at KRas G12A, 91%; on KRas G12C, 98%; at KRas G12S, 96%; on KRas G13D, 87%; on KRas Q61H it was 89%. Moreover, the IC50 with MKN1 cells was found to be 9.9 nM; in the assay with PSN1 cells, 5080 nM; in the assay with ASPC1 cells, 3 nM; in the assay on H727 cells, 5 nM; with A549 cells, 9 nM; with H460 cells, 35 nM. Further, the IC50 is 187 nM in the assay with HCT116 cells; 3 nM in the assay on H358 cells; 2 nM on KRas G12D; under 2 nM on KRas G12R; under 2 nM at KRas G12V. For the same compound, the inhibition at 0.1 µM with A549 cells amounted to 79%; in the assay on H358 cells it was 101%.

For `CCc1c(C(=O)N(C)C)nn2c1CN(c1nc(OC[C@@]34CCCN3C[C@H](F)C4)nc3c1CCN(c1cc(O)cc4ccc(F)c(CC)c14)C3)CCC2` [Example 372, 3-ethyl-5-(7-(8-ethyl-7-fluoro-3-hydroxynaphthalen-1-yl)-2-(((2R,7aS)-2-fluorohexahydro-1H-pyrrolizin-7a-yl)methoxy)-5,6,7,8-tetrahydropyrido[3,4-d]pyrimidin-4-yl)-N,N-dimethyl-5,6,7,8-tetrahydro-4H-pyrazolo[1,5-a][1,4]diazepine-2-carboxamide], the inhibition at 0.01 µM on KRas WT amounted to 98%; at KRas G12A, 99%; on KRas G12C, 99%; at KRas G12S, 99%; at KRas G13D, 98%; at KRas Q61H, 99%. In addition, the IC50 in the assay with MKN1 cells is 3.1 nM; in the assay with PSN1 cells, 2010 nM; in the assay with ASPC1 cells it was 2 nM; in the assay with H727 cells it was 5 nM; in the assay on A549 cells, 10 nM; with H460 cells it was 11 nM. The IC50 in the assay on HCT116 cells is 54 nM; with H358 cells, 2 nM; at KRas G12D, under 2 nM; on KRas G12R, under 2 nM; on KRas G12V, under 2 nM. Besides, the inhibition at 0.1 µM in the assay with ASPC1 cells (ASPC1, single point at 100 nM, 3 hrs compound incubation) was 95%; in the assay with H727 cells (NCI-H727, single point at 100 nM, 3 hrs compound incubation), 76%; in the assay with A549 cells, 72%; in the assay on H358 cells, 104%.

For the compound `CCc1c(F)ccc2cc(O)cc(N3CCc4c(nc(OC[C@@]56CCCN5C[C@H](F)C6)nc4N4CCCn5nc(C(=O)N(C)CCOCCOC)cc5C4)C3)c12` [Example 373, 5-(7-(8-ethyl-7-fluoro-3-hydroxynaphthalen-1-yl)-2-(((2R,7aS)-2-fluorohexahydro-1H-pyrrolizin-7a-yl)methoxy)-5,6,7,8-tetrahydropyrido[3,4-d]pyrimidin-4-yl)-N-(2-(2-methoxyethoxy)ethyl)-N-methyl-5,6,7,8-tetrahydro-4H-pyrazolo[1,5-a][1,4]diazepine-2-carboxamide], the inhibition at 0.01 µM was 96% on KRas WT; 96% at KRas G12A; 99% on KRas G12C; 99% on KRas G12S; 96% on KRas G13D; 97% at KRas Q61H. For the same compound, the IC50 in the assay on MKN1 cells was 6.6 nM; with PSN1 cells, 4150 nM; in the assay with ASPC1 cells, 2 nM; in the assay on H727 cells, 4 nM; in the assay with A549 cells, 11 nM; in the assay with H460 cells, 14 nM. Besides, the half-inhibitory concentration (IC50) was 48 nM in the assay on HCT116 cells; 2 nM in the assay on H358 cells; under 2 nM on KRas G12D; under 2 nM on KRas G12R; under 2 nM at KRas G12V. The inhibition at 0.1 µM with A549 cells is 72%; in the assay on H358 cells, 93%.
